According to ChEMBL document CHEMBL3621062, “Discovery, SAR, and X-ray Binding Mode Study of BCATm Inhibitors from a Novel DNA-Encoded Library” (ACS Med Chem Lett, 2015):

Each molecule was assayed against T1, Branched-chain-amino-acid aminotransferase, mitochondrial (Homo sapiens, UniProt O15382) (assay: Inhibition of human BCATm after 10 mins by fluorescent assay).
T1 sequence (O15382 whole entry): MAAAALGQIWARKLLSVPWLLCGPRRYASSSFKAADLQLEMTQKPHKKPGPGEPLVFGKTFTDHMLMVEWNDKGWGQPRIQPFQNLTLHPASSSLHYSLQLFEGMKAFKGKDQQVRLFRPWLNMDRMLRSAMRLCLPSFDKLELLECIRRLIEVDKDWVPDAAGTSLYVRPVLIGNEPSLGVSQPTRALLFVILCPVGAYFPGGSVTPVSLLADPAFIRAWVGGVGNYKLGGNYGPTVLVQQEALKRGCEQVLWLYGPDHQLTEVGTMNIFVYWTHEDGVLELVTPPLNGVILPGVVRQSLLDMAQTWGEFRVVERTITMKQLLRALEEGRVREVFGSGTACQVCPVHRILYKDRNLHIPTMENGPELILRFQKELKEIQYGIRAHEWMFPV

Point of comparison: CNC(=O)c1ccc(-c2ccccc2NS(C)(=O)=O)cc1O[C@@H]1CCN(C(=O)c2ccc(C#N)s2)C1, IC50 15.1 µM. Against it:
- CNC(=O)c1ccc(-c2cccc(C(=O)O)c2)cc1OC1CCN(C(=O)c2cc(Br)ccc2NC(=O)OC(C)(C)C)C1 (stereo not given) — higher, > 100 µM
- CNC(=O)c1ccc(-c2cccc(C(=O)O)c2)cc1OC1CCN(C(=O)c2cc(Br)ccc2N)C1 (stereo not given) — higher, > 100 µM
- CNC(=O)c1ccc(-c2cccc(C(=O)O)c2)cc1OC1CCN(C(=O)c2ccc(Br)s2)C1 (stereo not given) — 4.9-fold higher, 74.1 µM
- CNC(=O)c1ccc(-c2ccccc2NS(C)(=O)=O)cc1O[C@@H]1CCN(C(=O)c2ccc(Br)s2)C1 — 7.5-fold lower, 2 µM
- CNC(=O)c1ccc(-c2ccccc2NS(C)(=O)=O)cc1O[C@@H]1CCN(C(=O)c2ccc(Cl)s2)C1 — 5.4-fold lower, 2.8 µM
- CNC(=O)c1ccc(-c2ccccc2C)cc1O[C@@H]1CCN(C(=O)c2ccc(Br)s2)C1 — 4.3-fold higher, 64.6 µM
- CNC(=O)c1ccc(-c2ccccc2)cc1O[C@@H]1CCN(C(=O)c2ccc(Br)s2)C1 — higher, > 100 µM
- CNC(=O)c1ccccc1OC1CCN(C(=O)c2ccc(Br)s2)C1 (stereo not given) — higher, > 100 µM
- CNC(=O)c1ccc(-c2ccccc2NS(C)(=O)=O)cc1OC1CCN(C(=O)c2ccc(Br)s2)C1 (racemic) — 3.9-fold lower, 3.9 µM
